Assay results published in ChEMBL document CHEMBL1143026, “A synthetic method for diversification of the P1' substituent in phosphinic dipeptides as a tool for exploration of the specificity of the S1' binding pockets of leucine aminopeptidases” (Bioorg Med Chem, 2007).
Where “and” joins values, the source holds several entries; their conditions need not be identical. Equal entries are not always repeated. Calls of active or inactive are those of the source. The calls are words filed in the database; no cut-off is given here.

Columns and labels:
[1] = Inhibition of pig kidney cytosolic leucine aminopeptidase; parameters: species or system Sus scrofa
Sus scrofa = organism: Sus scrofa; assay: Inhibition of pig kidney microsomal leucine aminopeptidase at 10 to 20 uM
[2] = Inhibition of pig kidney microsomal leucine aminopeptidase; parameters: species or system Sus scrofa

## NC(CCc1ccccc1)P(=O)(O)CC(NCc1ccccc1)C(=O)O (stereo in doubt; 6,F1) [listing 1 of 2 here]
[1]
  Ki: 10.1 µM

## NC(CCc1ccccc1)P(=O)(O)CC(Nc1ccccc1)C(=O)O (stereo unspecified)
[1]
  Ki: 0.57 µM and 0.45 µM
Sus scrofa
  Activity: inactive

## NCc1ccc(NC(CP(=O)(O)C(N)CCc2ccccc2)C(=O)O)cc1 (stereo unspecified)
[1]
  Ki: 4.46 µM
[2]
  Ki: 0.56 µM

## NCc1ccc(CNC(CP(=O)(O)C(N)CCc2ccccc2)C(=O)O)cc1 (stereo in doubt; 8,F1)
[1]
  Ki: 2.78 µM
[2]
  Ki: 19.9 µM

## NC(CCc1ccccc1)P(=O)(O)CC(NCc1ccc(CO)cc1)C(=O)O (stereo unspecified)
[1]
  Ki: 4.21 µM and 1.42 µM
Sus scrofa
  Activity: inactive

## NC(CCc1ccccc1)P(=O)(O)CC(NCc1ccccc1)C(=O)O (stereo in doubt; 6,F1) [listing 2 of 2 here]
Sus scrofa
  Activity: inactive

## NC(CCc1ccccc1)P(=O)(O)CC(Nc1ccc(CO)cc1)C(=O)O (stereo unspecified)
[1]
  Ki: 10.3 µM and 6.98 µM
[2]
  Ki: 0.9 µM and 1.13 µM

## NC(CCc1ccccc1)P(=O)(O)CC(NCc1ccccc1)C(=O)O (stereo in doubt; 6)
[1]
  Ki: 12.4 µM
[2]
  Ki: 1500 µM

## NCc1ccc(CNC(CP(=O)(O)C(N)CCc2ccccc2)C(=O)O)cc1 (stereo in doubt; 8,F2)
[1]
  Ki: 2.62 µM
[2]
  Ki: 2.66 µM
